How the values were obtained:
[1] = system: monoamine oxidase; assay: MPTP mouse model: monoamine oxidase fluorometric assay of total brain protein extract; settings: for Monoamine oxidase fluorometric assay: total brain protein extract, control = 100
[2] = system: tyrosine hydroxylase expression; assay: MPTP mouse model: tyrosine hydroxylase ELISA assay of total brain protein extract; settings: for Mean expression of tyrosine hydroxylase: ELISA, control 0.275
Description: The microliter plate wells were coated overnight at 4° C. with 5 μg of total brain protein extract. All unbound sites were blocked with a blocking buffer 10% FCS in PBS 1 hour at room temperature. Then, the anti-tyrosine hydroxylase rabbit polyclonal antibody, diluted 1:1000 was added for 2 hours at room temperature.

[3] = system: C57BL/6 mice; assay: Mortality after MPTP intoxication; type: in vivo; settings: 24 hours after treatment by the MPTP
Description: Brain samples were collected after mice anesthesia and sacrifice.

[4] = system: tyrosine hydroxylase expression; assay: MPTP mouse model: tyrosine hydroxylase immunohistochemistry on coronal brain sections; type: in vivo, C57BL/6 mice; settings: MPTP + masitinib 2×5 mg/kg; 5 μm-thick coronal sections
Description: The 5 μM-thick coronal sections were deparaffinized and hydrated, Endogenous peroxydase were inhibited with a dual endogenous enzyme block solution (Cat #S2003, DakoCytonation). Non specific protein binding was blocked with 1% BSA in PBS, pH=7,4. […] Peroxidase staining was obtained using the AbCys Histogreen substrate kit (Cat #E109, AbCys) and counterstained with a Neutral Red solution. After dehydration the sections were cover-slipped with Eukitt®.

[5] = system: human cord blood mast cells; settings: cited from earlier work

## CN1CC=C(c2ccccc2)CC1 [MPTP, 1-methyl-4-phenyl-1,2,3,6-tetrahydropyridine, reference compound]
[1]; MPTP alone
  Monoamine oxidase fluorometric assay: 108
[2]; MPTP alone (4 × 20 mg/kg), solvent treated
  Mean expression of tyrosine hydroxylase: 0.175
[3]
  mortality: No mortality

## Cc1ccc(NC(=O)c2ccc(CN3CCN(C)CC3)cc2)cc1Nc1nc(-c2cccnc2)cs1 [Masitinib, 4-(4-methylpiperazin-1-ylmethyl)-N-[4-methyl-3-(4-pyridin-3ylthiazol-2-ylamino)phenyl]benzamide]
[1]; MPTP + masitinib 2 × 5 mg/kg
  Monoamine oxidase fluorometric assay: 115
[1]; MPTP in combination with masitinib
  activity of monoamine oxidase with respect to the control group: maintained
[4]
  attenuation of tyrosine hydroxylase destruction by immunohistochemistry: reproducible
[5]
  FccRI-mediated degranulation of human cord blood mast cells: inhibition
[2]; MPTP + masitinib 2×5 mg/kg cohort
  decrease of tyrosine hydroxylase expression in response to MPTP treatment: significantly diminished decrease
[2]; MPTP + masitinib 2 × 5 mg/kg per os, day -7 to day 7
  Mean expression of tyrosine hydroxylase: 0.215
[2]; masitinib alone 2 × 30 mg/kg per os, no MPTP
  Mean expression of tyrosine hydroxylase: 0.225
[2]; masitinib alone, no MPTP
  basal expression of tyrosine hydroxylase compared with control: did not modify significantly
